Measurements: PubChem BioAssay (NCI)
Values joined by “and” are separate entries in the source; they are usually repeats but may differ in a detail not shown here. Equal values may be shown once.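 Dose response: 5 concentrations. Exposure: 48 h. Format: 96-well plates. Endpoint: linear interpolation; highest concentration if not reached. Here, GI50 denotes the concentration required for 50% inhibition of growth. TGI is the concentration that stops growth completely.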

Experiments:
Assay in all cases: NCI anticancer screen, dose series, 48 h
[1] = system: HOP-92 NSCLC
[2] = system: OVCAR-5 ovarian
[3] = system: RXF 393 renal
[4] = system: SF-268 CNS
[5] = system: SK-MEL-2 melanoma
[6] = system: SK-MEL-28 melanoma
[7] = system: SN12C renal
[8] = system: SNB-19 CNS
[9] = system: T-47D breast
[10] = system: UACC-62 melanoma

SMILES	GI50 [1]	TGI [1]	GI50 [2]	TGI [2]	GI50 [3]	GI50 [4]	TGI [4]	GI50 [5]	TGI [5]	GI50 [6]	TGI [6]	GI50 [7]	TGI [7]	GI50 [8]	TGI [8]	GI50 [9]	TGI [9]	GI50 [10]	TGI [10]	TGI [3]
COc1ccc(-c2nsc3c2NC(=O)CC3c2ccc3c(c2)OCCO3)cc1 (stereo not drawn)	356 nM	> 100 µM	10.2 µM	> 100 µM	629 nM	1920 nM	> 100 µM	7240 nM	> 100 µM	2700 nM	> 100 µM	0.776 µM	> 100 µM	0.924 µM	> 100 µM	454 nM	> 100 µM	482 nM	> 100 µM	
COc1ccc(OC)c(NC(=O)c2cccc(NC3=C(Cl)C(=O)N(Cc4ccccc4)C3=O)c2)c1	> 100000 nM	> 100 µM	> 73 µM	> 100 µM	> 74600 nM	> 69200 nM	> 100 µM	> 100000 nM	> 100 µM	> 100000 nM	> 100 µM	> 58.1 µM	> 100 µM	> 100 µM	> 100 µM	> 100000 nM	> 100 µM	> 63100 nM	> 100 µM	> 100 µM
CCCCCCCN(CCCCCCC)C(=N)c1ccnc2ccccc12	1330 nM	3 µM	1.8 µM	3.6 µM	1440 nM	1480 nM	3.03 µM	1710 nM	3.35 µM	1680 nM	3.21 µM	1.67 µM	3.49 µM	1.79 µM	3.68 µM	1780 nM	4.3 µM	1520 nM	3.05 µM	2.99 µM
CN(C)C[C@H]1CCn2c(c(C3=C(c4cn(C)c5ccccc45)C(=O)NC3=O)c3ccccc32)C1	4190 nM	10.9 µM	5.35 µM	17 µM	3670 nM	4710 nM	9.04 µM	4970 nM	9.23 µM	4250 nM	8.02 µM	4.39 µM	9.66 µM	5.65 µM	16.6 µM	5430 nM	11.2 µM	4150 nM	7.98 µM	7.18 µM
CC(CN(C)C)S(=O)(=O)c1ccc(-c2cnc(N)c(C(=O)Nc3ccccc3)n2)cc1 (stereo not drawn)	6860 nM	34.7 µM	11.8 µM	34.5 µM	1520 nM	6800 nM	39.8 µM	4310 nM	17.6 µM	7220 nM	21.4 µM	5.09 µM	27 µM	16.3 µM	75.1 µM	13100 nM	59.3 µM	6280 nM	21.6 µM	8.4 µM
Cc1ccc2[nH]c3c(c2c1)N=c1ccccc1=NO3	> 100000 nM	> 100 µM	> 100 µM	> 100 µM	47600 nM	23100 nM	55.8 µM	> 100000 nM	> 100 µM	> 100000 nM	> 100 µM	36.5 µM	> 100 µM	32.6 µM	> 100 µM	74400 nM	> 100 µM	36500 nM	> 100 µM	> 100 µM
CN(C)c1ccc(C(=N)c2ccc(N(C)C)cc2)cc1	942 nM and 1520 nM	6.24 µM and 8.69 µM	7.57 µM and 7.89 µM	> 100 µM	2930 nM and 2860 nM	4640 nM and 11600 nM	43.4 µM and > 100 µM	2240 nM and 3920 nM	8.35 µM and 16.7 µM	4820 nM and 3260 nM	48.8 µM and 27.5 µM	6.32 µM and 6.04 µM	> 100 µM	4.38 µM and 16 µM	> 100 µM	5510 nM and 3420 nM	44.8 µM and 29.2 µM	3240 nM and 5320 nM	17.6 µM and 23.9 µM	12.2 µM and 19.3 µM
COC1CC(C)C(OC)c2cc(O)cc(c2O)NC(=O)/C(C)=C/C=C\C(C)C(OC(N)=O)/C(C)=C\C(C)C1OC (stereo not drawn)	234 nM	12.1 µM and 2.79 µM	0.549 µM	20.5 µM and 11 µM	1330 nM	693 nM and 279 nM	21.1 µM and 11 µM	683 nM and 1160 nM	16 µM and 11.9 µM	291 nM	6.89 µM and 9.62 µM		15.1 µM and 8.7 µM	0.649 µM	23.7 µM and 72.3 µM	446 nM	18.6 µM and 12.9 µM	162 nM	8.89 µM and 5.83 µM	9.01 µM and 8.63 µM
COc1cc(OC)c(/C=C/C(=O)c2ccc(Nc3ncnc4ccccc34)cc2)c(OC)c1	1080 nM	3.89 µM	1.88 µM	5.32 µM	488 nM	1370 nM	4.4 µM	1010 nM	7.36 µM	940 nM	3.03 µM	1.66 µM	10 µM	1.23 µM	14.5 µM	1510 nM	14.3 µM	599 nM	2.18 µM	1.95 µM
c1ccc2cc(Cn3cc[n+](Cc4ccc5ccccc5c4)c3)ccc2c1	160 nM	1.39 µM	1.71 µM	7.19 µM	1250 nM	1280 nM	11.1 µM	1370 nM	4.35 µM	1200 nM	3.36 µM	0.846 µM	7.03 µM	0.979 µM	6.97 µM	385 nM	5.24 µM	478 nM	1.98 µM	4.72 µM
CCn1c(-c2c(Cl)cc(O)cc2Cl)cc2c(Cl)cc(O)cc21		59.4 µM		65 µM			16.1 µM		17.1 µM		10.1 µM		> 100 µM		28.3 µM		27.4 µM		32.8 µM	8.03 µM
Nc1ncn(C2OC(COP(=O)(O)O)C(O)C2O)c(=O)n1 (stereo not drawn)		> 100 µM		> 100 µM			> 100 µM		> 100 µM		> 100 µM		> 100 µM		> 100 µM		> 100 µM		> 100 µM	> 100 µM
CCN(CC)CCC(=O)OC1C(C)=CC(C)C(=O)CC(C(C)CC2CCC(O)C(OC)C2)OC(=O)C2CCCCN2C(=O)C(=O)[C@@]2(O)OC(CCC2C)CC(OC)\C(C)=C/C=C/C=C/C(C)CC(C)C(=O)C1OC (stereo partly drawn)		21.9 µM		25.6 µM			20.5 µM		18.9 µM		19.3 µM		21.1 µM		21.6 µM		14.6 µM		19.8 µM	15.2 µM
C=C1C(=O)O[C@H]2[C@H]1CC/C(Cn1cc(Cc3c[nH]c4ccccc34)nn1)=C\CC[C@@]1(C)O[C@@H]21	2000 nM	3.75 µM	1.8 µM	3.48 µM	1630 nM	1700 nM	3.27 µM	1980 nM	3.95 µM	1660 nM	3.22 µM	1.98 µM	4.42 µM	2.55 µM	6.33 µM	1870 nM	4.7 µM	1660 nM	3.13 µM	3.63 µM
CCCCC[C@H]1CC=C2C(=O)C=C[C@@H]2CC=CCCCC(=O)O[C@@H](CCCCC)CC=C2C(=O)C=C[C@@H]2CC=CCCCC(=O)O[C@@H](CCCCC)CC=C2C(=O)C=C[C@@H]2CC=CCCCC(=O)O1	359 nM	1.82 µM	1.08 µM	> 8.75 µM	194 nM	305 nM	7.8 µM	281 nM	0.969 µM	311 nM	1.74 µM	0.277 µM	> 8.75 µM	0.55 µM	> 8.75 µM	195 nM	0.713 µM	204 nM	0.545 µM	0.422 µM
CC/C=C\C[C@H](O)C/C=C1/C(=O)C=C[C@@H]1C/C=C\CCCC(=O)OC(C)C	2250 nM	4.88 µM	3.07 µM	8.41 µM	1760 nM	2000 nM	6.31 µM	2020 nM	4.77 µM	1410 nM	3.05 µM	2.42 µM	6.35 µM	3.3 µM	12.8 µM	1370 nM	7 µM	1370 nM	3.16 µM	3.27 µM
Oc1[nH]c(N=C2N=c3ccccc3=N2)c2ccccc12	15000 nM	49 µM	20.4 µM	68.1 µM	8850 nM	11600 nM	50.8 µM	11100 nM	29.7 µM	12800 nM	33.6 µM	12.8 µM	36.7 µM	15.7 µM	93 µM	8270 nM	85.8 µM	11800 nM	36 µM	22.2 µM
COc1cc2c3c(n(CCCCNC(=O)OC(C)(C)C)c(=O)c2cc1OC)-c1cc2c(cc1C3=O)OCO2	60300 nM	> 100 µM	> 100 µM	> 100 µM	17500 nM	15300 nM	> 100 µM	> 100000 nM	> 100 µM	> 100000 nM	> 100 µM	78 µM	> 100 µM	> 100 µM	> 100 µM	> 100000 nM	> 100 µM	> 100000 nM	> 100 µM	62.1 µM
COc1cccc(Sc2ccc([N+](=O)[O-])c3no[n+]([O-])c23)c1	15500 nM	32.7 µM	8.31 µM	20.2 µM	8990 nM	12500 nM	30 µM	20900 nM	45.2 µM	6520 nM	14 µM	16.9 µM	46.8 µM	35 µM	> 88.3 µM	3360 nM	14.4 µM	13700 nM	36 µM	23.8 µM
CC(CN1CC(=O)NC(=O)C1)N1CC(=O)NC(=O)C1 (stereo not drawn)		732 µM		749 µM			> 750 µM		741 µM		> 750 µM		> 750 µM		> 750 µM		> 750 µM		> 686 µM	> 750 µM
